Source: ChEMBL document CHEMBL1201862, “PubChem BioAssay data set” (2004)
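Five compound concentrations were applied to cells in 96-well plates for 48 hours; endpoints were derived by simple linear interpolation of the resulting dose-response curve. GI50 = concentration required for 50% inhibition of growth.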 Activity calls are given as the source filed them. Rule as the data show it: active = GI50 up to about 1.1 µM and inactive = higher.

How the values were obtained:
Assay in all cases: NCI tumour cell line growth inhibition, 48 h
SR = test system: SR
UACC-257 = test system: UACC-257
NCI-H226 = test system: NCI-H226
NCI-H522 = test system: NCI-H522
OVCAR-5 = test system: OVCAR-5
ACHN = test system: ACHN
HL-60 = test system: HL-60
MDA-MB-231 = test system: MDA-MB-231
DU-145 = test system: DU-145
MDA-N = test system: MDA-N
CCRF-CEM = test system: CCRF-CEM
COLO 205 = test system: COLO 205
HCT-116 = test system: HCT-116
OVCAR-4 = test system: OVCAR-4
SNB-75 = test system: SNB-75
EKVX = test system: EKVX
SW-620 = test system: SW-620
TK-10 = test system: TK-10
KM12 = test system: KM12

## c1ccc(/N=C2\SC(=NNc3ccccc3)S\C2=N/c2ccccc2)cc1
SR
  GI50: > 100 µM (inactive)
UACC-257
  GI50: 65.5 µM (inactive)
NCI-H226
  GI50: 48.1 µM (inactive)
NCI-H522
  GI50: 15.3 µM (inactive)
OVCAR-5
  GI50: 98.2 µM (inactive)
ACHN
  GI50: > 100 µM (inactive)
HL-60
  GI50: > 100 µM (inactive)
MDA-MB-231
  GI50: > 100 µM (inactive)
DU-145
  GI50: 62.2 µM (inactive)
MDA-N
  GI50: 77.6 µM (inactive)
CCRF-CEM
  GI50: > 100 µM (inactive)
COLO 205
  GI50: 28.7 µM (inactive)
HCT-116
  GI50: 50.4 µM (inactive)
OVCAR-4
  GI50: > 100 µM (inactive)
SNB-75
  GI50: 85.7 µM (inactive)
EKVX
  GI50: > 100 µM (inactive)
SW-620
  GI50: > 100 µM (inactive)
TK-10
  GI50: > 100 µM (inactive)
KM12
  GI50: 6.12 µM (inactive)

## Cc1nc2c(ccc3[nH]c4ccccc4c32)s1
SR
  GI50: 13.8 µM (inactive)
UACC-257
  GI50: 35.6 µM (inactive)
NCI-H226
  GI50: 14.8 µM (inactive)
NCI-H522
  GI50: 15.9 µM (inactive)
OVCAR-5
  GI50: 19.3 µM (inactive)
ACHN
  GI50: 35.1 µM (inactive)
HL-60
  GI50: 0.111 µM (active)
MDA-MB-231
  GI50: 14.5 µM (inactive)
DU-145
  GI50: 33.8 µM (inactive)
MDA-N
  GI50: 31.1 µM (inactive)
CCRF-CEM
  GI50: 18.8 µM (inactive)
COLO 205
  GI50: 20.5 µM (inactive)
HCT-116
  GI50: 17.4 µM (inactive)
OVCAR-4
  GI50: 25.5 µM (inactive)
SNB-75
  GI50: 32.9 µM (inactive)
EKVX
  GI50: 21.2 µM (inactive)
SW-620
  GI50: 19.7 µM (inactive)
TK-10
  GI50: 29.5 µM (inactive)
KM12
  GI50: 25.5 µM (inactive)

## COC(=O)[C@@H]1C[C@@H]2c3ccccc3N(S(=O)(=O)c3ccccc3)[C@@H]2N1C(=O)OC
SR
  GI50: > 100 µM (inactive)
UACC-257
  GI50: > 100 µM (inactive)
NCI-H226
  GI50: > 100 µM (inactive)
NCI-H522
  GI50: > 100 µM (inactive)
OVCAR-5
  GI50: 44 µM (inactive)
ACHN
  GI50: > 100 µM (inactive)
HL-60
  GI50: > 100 µM (inactive)
MDA-MB-231
  GI50: > 100 µM (inactive)
DU-145
  GI50: 35.2 µM (inactive)
MDA-N
  GI50: > 100 µM (inactive)
CCRF-CEM
  GI50: > 100 µM (inactive)
COLO 205
  GI50: > 100 µM (inactive)
HCT-116
  GI50: > 100 µM (inactive)
OVCAR-4
  GI50: > 100 µM (inactive)
SNB-75
  GI50: > 100 µM (inactive)
EKVX
  GI50: > 100 µM (inactive)
SW-620
  GI50: > 100 µM (inactive)
TK-10
  GI50: > 100 µM (inactive)
KM12
  GI50: > 100 µM (inactive)

## CO[P@@]1(=O)O[C@@H](c2ccccc2)[C@H](O)[C@@]1(O)c1ccccc1
SR
  GI50: 10.2 µM (inactive)
UACC-257
  GI50: > 100 µM (inactive)
NCI-H226
  GI50: > 100 µM (inactive)
NCI-H522
  GI50: > 100 µM (inactive)
OVCAR-5
  GI50: > 100 µM (inactive)
ACHN
  GI50: > 100 µM (inactive)
HL-60
  GI50: > 100 µM (inactive)
MDA-MB-231
  GI50: > 100 µM (inactive)
DU-145
  GI50: > 100 µM (inactive)
MDA-N
  GI50: > 100 µM (inactive)
CCRF-CEM
  GI50: > 100 µM (inactive)
COLO 205
  GI50: > 100 µM (inactive)
HCT-116
  GI50: > 100 µM (inactive)
OVCAR-4
  GI50: > 100 µM (inactive)
SNB-75
  GI50: > 100 µM (inactive)
EKVX
  GI50: > 100 µM (inactive)
SW-620
  GI50: > 100 µM (inactive)
TK-10
  GI50: > 100 µM (inactive)
KM12
  GI50: > 100 µM (inactive)

## CCCCCCCCCCOC1C(C(O)CNCCCN(C)C)OC2OC3(CCCCC3)OC21 (stereo not given)
SR
  GI50: 0.329 µM (active)
UACC-257
  GI50: 4.05 µM (inactive)
NCI-H226
  GI50: 18.5 µM (inactive)
NCI-H522
  GI50: 1.82 µM (inactive)
OVCAR-5
  GI50: 1.72 µM (inactive)
ACHN
  GI50: 2.81 µM (inactive)
HL-60
  GI50: 1.69 µM (inactive)
MDA-MB-231
  GI50: 1.8 µM (inactive)
DU-145
  GI50: 3.35 µM (inactive)
MDA-N
  GI50: 1.96 µM (inactive)
CCRF-CEM
  GI50: 1.71 µM (inactive)
COLO 205
  GI50: 2 µM (inactive)
HCT-116
  GI50: 1.99 µM (inactive)
OVCAR-4
  GI50: 2.04 µM (inactive)
SNB-75
  GI50: 0.0491 µM (active)
EKVX
  GI50: 3.71 µM (inactive)
SW-620
  GI50: 1.74 µM (inactive)
TK-10
  GI50: 3.21 µM (inactive)
KM12
  GI50: 1.51 µM (inactive)
